Target: Human recombinant carboxy-terminal his-tagged LDHA (amino acids 2-332) (Homo sapiens, UniProt P00338)
Experiment: LDHA enzyme inhibition assay (NADH fluorescence)
Conditions: LDHA IC50 (μM), 1 nM LDHA, NADH and pyruvate, stereochemistry of tested sample given

IC50 | SMILES
0.105 µM | CC(Oc1cccc(C2(c3ccsc3)CC(=O)C(Sc3ccccc3Cl)C(=O)N2)n1)c1ccc(F)c(F)c1 (stereo not shown) [Example 313, 3-((2-chlorophenyl)thio)-6-(6-(1-(3,4-difluoro-phenyl)ethoxy)pyridin-2-yl)-6-(thiophen-3-yl) piperidine-2,4-dione]
0.014 µM | O=C1CC(c2ccsc2)(c2cccc(Oc3ccc(C(F)(F)F)cc3)n2)NC(=O)C1Sc1ccccc1Cl (stereo not shown) [Example 315, 3-(2-chlorophenyl)sulfanyl-6-(3-thienyl)-6-[6-[4-(trifluoromethyl)phenoxy]-2-pyridyl]piperidine-2,4-dione]
0.225 µM | O=C1CC(c2ccsc2)(c2cccc(Nc3ccc(F)nc3)n2)NC(=O)C1Sc1ccccc1Cl [Example 317, (6R)-3-(2-chlorophenyl) sulfanyl-6-[6-[(6-fluoro-3-pyridyl)amino]-2-pyridyl]-6-(3-thienyl) piperidine-2,4-dione]
0.01 µM | O=C1C[C@](c2ccc(N3CCOCC3)cc2)(c2cccc(Oc3ccc(F)c(F)c3)n2)NC(=O)C1Sc1ccccc1Cl (stereo partly drawn) [Example 318, (6S)-3-(2-chlorophenyl) sulfanyl-6-[6-(3,4-difluoro-phenoxy)-2-pyridyl]-6-(4-morpholinophenyl) piperidine-2,4-dione]
0.197 µM | CC(C)c1cc(F)ccc1Oc1cccc([C@@]2(c3ccsc3)CC(=O)C(Sc3ccccc3Cl)C(=O)N2)n1 (stereo partly drawn) [Example 319, (6S)-3-(2-chlorophenyl) sulfanyl-6-[6-(4-fluoro-2-isopropyl-phenoxy)-2-pyridyl]-6-(3-thienyl) piperidine-2,4-dione]
0.093 µM | COC1CCC(Oc2cccc(C3(c4ccsc4)CC(=O)C(Sc4ccccc4Cl)C(=O)N3)n2)CC1 (stereo not shown) [Example 320, 5-(2-chlorophenyl)sulfanyl-4-hydroxy-2-[6-(4-methoxycyclohexoxyl)-2-pyridyl]-2-(3-thienyl)-1,3-dihydropyridin-6-one]
0.246 µM | O=C1CC(c2ccsc2)(c2cccc(OC3CCCc4ccccc43)n2)NC(=O)C1Sc1ccccc1Cl (stereo not shown) [Example 321, 5-(2-chlorophenyl)sulfanyl-4-hydroxy-2-(6-tetralin-1-yloxy-2-pyridyl)-2-(3-thienyl)-1,3-dihydro-pyridin-6-one]
0.084 µM | O=C1CC(c2ccsc2)(c2cccc(Oc3ccc(F)nc3Cl)n2)NC(=O)C1Sc1ccccc1Cl (stereo not shown) [Example 324, 6-[6-[(2-chloro-6-fluoro-3-pyridyl)oxy]-2-pyridyl]-3-(2-chlorophenyl) sulfanyl-6-(3-thienyl) piperidine-2,4-dione]
0.035 µM | O=C1C[C@](c2ccsc2)(c2cccc(Oc3ccc(Br)cc3Cl)n2)NC(=O)C1Sc1ccccc1Cl (stereo partly drawn) [Example 327, (6S)-6-[6-(4-bromo-2-chloro-phenoxy)-2-pyridyl]-3-(2-chlorophenyl) sulfanyl-6-(3-thienyl) piperidine-2,4-dione]
0.054 µM | O=C1CC(c2ccsc2)(c2ccc(N3CCOCC3)c(F)c2)NC(=O)C1Sc1ccccc1Cl (stereo not shown) [Example 328, 3-(2-chlorophenyl)sulfanyl-6-(3-fluoro-4-morpholino-phenyl)-6-(3-thienyl)piperidine-2,4-dione]
0.037 µM | O=C1CC(c2ccsc2)(c2cccc(Nc3ccc(F)c(F)c3Cl)n2)NC(=O)C1Sc1ccccc1Cl (stereo not shown) [Example 329, 6-[6-(2-chloro-3,4-difluoro-anilino)-2-pyridyl]-3-(2-chlorophenyl)sulfanyl-6-(3-thienyl)piperidine-2,4-dione]
0.041 µM | O=C1C[C@](c2ccsc2)(c2cccc(Oc3ccc(C(F)(F)F)cc3)n2)NC(=O)C1Sc1ccccc1Cl (stereo partly drawn) [Example 330, (6S)-3-(2-chlorophenyl) sulfanyl-6-(3-thienyl)-6-[6-[4-(trifluoromethyl)phenoxy]-2-pyridyl] piperidine-2,4-dione]
0.148 µM | CC(Nc1cccc(C2(c3ccsc3)CC(=O)C(Sc3ccccc3Cl)C(=O)N2)n1)C1CC1 (stereo not shown) [Example 331]
0.168 µM | CC(Nc1cccc(C2(c3ccsc3)CC(=O)C(Sc3ccccc3Cl)C(=O)N2)n1)C1CC1 (stereo not shown) [Example 332]
0.198 µM | O=C1CC(c2ccsc2)(c2cccc(OC3CCCc4c(F)cccc43)n2)NC(=O)C1Sc1ccccc1Cl (stereo not shown) [Example 333, 5-(2-chlorophenyl)sulfanyl-2-[6-(5-fluorotetralin-1-yl)oxy-2-pyridyl]-4-hydroxy-2-(3-thienyl)-1,3-dihydropyridin-6-one]
0.739 µM | COc1cc(F)ccc1Oc1cccc(C2(c3ccsc3)CC(=O)C(Sc3ccccc3Cl)C(=O)N2)n1 (stereo not shown) [Example 334, 3-(2-chlorophenyl)sulfanyl-6-[6-(4-fluoro-2-methoxy-phenoxy)-2-pyridyl]-6-(3-thienyl)piperidine-2,4-dione]
0.002 µM | Cc1cc(Nc2cccc([C@@]3(c4ccsc4)CC(=O)C(Sc4ccccc4Cl)C(=O)N3)n2)cnc1F (stereo partly drawn) [Example 335, (6S)-3-(2-chlorophenyl) sulfanyl-6-[6-[(6-fluoro-5-methyl-3-pyridyl)amino]-2-pyridyl]-6-(3-thienyl) piperidine-2,4-dione]
0.368 µM | O=C1CC(c2ccsc2)(c2cccc(Oc3ccccc3)n2)NC(=O)C1Sc1ccccc1Cl [Example 336, (6R)-3-(2-chlorophenyl) sulfanyl-6-(6-phenoxy-2-pyridyl)-6-(3-thienyl) piperidine-2,4-dione]
0.009 µM | O=C1CC(c2cccc(Oc3ccc(F)cc3)n2)(c2ccccc2O)NC(=O)C1Sc1ccccc1Cl (stereo not shown) [Example 338, 5-(2-chlorophenyl)sulfanyl-2-[6-(4-fluorophenoxy)-2-pyridyl]-4-hydroxy-2-(2-hydroxyphenyl)-1,3-dihydropyridin-6-one]
